{"source": "paper PMC7531004", "about": "“Discovery of gramicidin A analogues with altered activities by multidimensional screening of a one-bead-one-compound library” (Nature Communications, 2020)", "system": "P388 mouse leukemia cells", "settings": "92 h", "in_short": "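P388 cells at 1 × 10^4 cells/mL (final) were exposed to library peptides (stocks diluted 250-fold in RPMI1640/10% FBS) for 92 h at 37 °C, 5% CO2. Viable cells were counted by WST-1/1-methoxy PMS (4 h), absorbance 415 nm, and expressed as cell viability (%).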", "note": "Where a SMILES comes first, the peptide text is derived from it. [ ]: non-standard residue; d: D form. The star is where a group is joined. NHCH2CH2OH = OCCN*; For = O=C*", "data": [{"smiles": "CC(C)C[C@@H](NC(=O)[C@H](C)NC(=O)CNC(=O)[C@@H](NC=O)C(C)C)C(=O)N[C@@H](C)C(=O)N[C@@H](C(=O)N[C@H](C(=O)N[C@@H](C(=O)N[C@@H](Cc1c[nH]c2ccccc12)C(=O)N[C@H](CC(C)C)C(=O)N[C@@H](Cc1c[nH]c2ccccc12)C(=O)N[C@H](CC(C)C)C(=O)N[C@@H](Cc1c[nH]c2ccccc12)C(=O)N[C@H](CC(C)C)C(=O)N[C@@H](Cc1c[nH]c2ccccc12)C(=O)NCCO)C(C)C)C(C)C)C(C)C", "note": "[compound 1, Gramicidin A] (For-VGA[dL]A[dV]V[dV]W[dL]W[dL]W[dL]W-NHCH2CH2OH)", "values": [{"measurement": "cell viability/%", "value": 100.0, "unit": "%"}]}]}
